Data: patent publication US7982043B2, “Protein tyrosine kinase enzyme inhibitors” (Wyeth LLC, priority 2003, dated 2011)
Values after ≈ are worked out from the molar mass of the structure shown. Where two headings read alike, the source gives them in different places.

How the values were obtained:
Type in all cases: cell-based
SK-Br-3 cells = assay: Cell proliferation assay (SRB), SK-Br-3; conditions: for IC50: Homo sapiens, SK-BR-3, 48 h, read-out: CELL IC50 SKBr3
MDA-MB-435 cells = assay: Cell proliferation assay (SRB), MDA-MB-435; conditions: for IC50: Homo sapiens, MDA-MB-435, 48 h, read-out: CELL IC50 MDA-MB-435
A431 cells = assay: Cell proliferation assay (SRB), A431; conditions: for IC50: Homo sapiens, A-431, 48 h, read-out: CELL IC50 A431
[1] = molecular target: mouse fibroblast cell line transfected with the HER-2 oncogene (3T3/neu) (UniProt P04626, cells depend on it, species not given); assay: Cell proliferation assay (SRB), 3T3/neu; conditions: for GI50: read-out: CELL IC50 3T3/NEU (converted)
SW620 cells = assay: Cell proliferation assay (SRB), SW620; conditions: for IC50: Homo sapiens, SW-620, 48 h, read-out: CELL IC50 SW620
[2] = mouse fibroblast cell line transfected with the her-2 oncogene (3t3/neu)

Row | Compound | IC50 (SK-Br-3 cells; EGFR −, Her-2 +++, 2 days, SRB) [mg/L] | IC50 (A431 cells; EGFR +++, Her-2 +, 2 days, SRB) [mg/L] | GI50 ([1]; EGFR −, Her-2 +++, 2 days, SRB) [µM] | IC50 (SW620 cells; EGFR −, Her-2 −, 2 days, SRB) [mg/L] | CELL IC50 SKBr3 (SK-Br-3 cells; EGFR −, Her-2 +++, 2 days, SRB) [mg/L] | CELL IC50 MDA-MB-435 (MDA-MB-435 cells; EGFR −, Her-2 −, 2 days, SRB) [mg/L] | CELL IC50 A431 (A431 cells; EGFR +++, Her-2 +, 2 days, SRB) [mg/L] | CELL IC50 SW620 (SW620 cells; EGFR −, Her-2 −, 2 days, SRB) [mg/L] | also measured
1 | 4-{3-chloro-4-[(4-oxo-3,4-dihydro-2-quinazolinyl)sulfanyl]anilino}-7-methoxy-6-hydro-2-quinazolinyl)sulfanyl]anilino}-7-methoxy-6-nitro-3-quinolinecarbonitrile [Example 44] | – | – | – | – | – | – | – | – | CELL IC50 SKBr3 (SK-Br-3 cells): 4.54 mg/L; CELL IC50 MDA-MB-435 (MDA-MB-435 cells): >5 mg/L; CELL IC50 A431 (A431 cells): 2.28 mg/L; CELL IC50 3T3/NEU [1, 2]: 4.54 mg/L; CELL IC50 SW620 (SW620 cells): 1.96 mg/L
2 | C=CC(=O)Nc1ccc2ncc(C#N)c(Nc3ccc(Sc4nccn4C)c(Cl)c3)c2c1 [Example 21, N-{4-[3-Chloro-4-(1-methyl-1H-imidazol-2-ylsulfanyl)-phenylamino]-3-cyano-quinolin-6-yl}-acrylamide] | 0.01 (≈ 0.0217 µM) | 0.62 (≈ 1.35 µM) | 1 | 1.84 (≈ 3.99 µM) | – | – | – | – | IC50 (MDA-MB-435 cells; EGFR −, Her-2 −, 2 days, SRB): 4.57 mg/L (≈ 9.91 µM)
3 | CCOc1cc2ncc(C#N)c(Nc3ccc4cc[nH]c4c3)c2cc1OCC [Example 22, 6,7-Diethoxy-4-(1H-indol-6-ylamino)-quinoline-3-carbonitrile] | 0.0374 (≈ 0.1 µM) | 0.123 (≈ 0.33 µM) | 2.51 | 0.286 (≈ 0.768 µM) | – | – | – | – | IC50 (MDA-MB-435 cells; EGFR −, Her-2 −, 2 days, SRB): 0.365 mg/L (≈ 0.98 µM)
4 | CCOc1cc2ncc(C#N)c(Nc3ccc4c(c3)OCCO4)c2cc1OCC [Example 23, 4-(2,3-Dihydro-benzo[1,4]dioxin-6-ylamino)-6,7-diethoxy-quinoline-3-carbonitrile] | – | – | 0.958 | – | – | – | – | – | –
5 | COCCOc1cc2ncc(C#N)c(Nc3ccc4cn[nH]c4c3)c2cc1OCCOC [Example 24, 4-(1H-Indazol-6-ylamino)-6,7-bis-(2-methoxy-ethoxy)-quinoline-3-carbonitrile] | – | – | > 11.5 | – | – | – | – | – | –
6 | CCOc1cc2ncc(C#N)c(Nc3ccc4c(=O)[nH][nH]c(=O)c4c3)c2cc1OCC [Example 25, 4-(1,4-Dioxo-1,2,3,4-tetrahydro-phthalazin-6-ylamino)-6,7-diethoxy-quinoline-3-carbonitrile] | – | – | > 12 | – | – | – | – | – | –
7 | CCOc1cc2ncc(C#N)c(Nc3ccc4c(c3)CCC4)c2cc1OCC [Example 26, 6,7-Diethoxy-4-(indan-5-ylamino)-quinoline-3-carbonitrile] | – | – | 0.053 | 0.294 (≈ 0.787 µM) | – | – | – | – | –
8 | CCOc1cc2ncc(C#N)c(Nc3ccc4[nH]c(=O)oc(=O)c4c3)c2cc1OCC [Example 27, 4-(2,4-Dioxo-1,4-dihydro-2H-benzo[d][1,3]oxazin-6-ylamino)-6,7-diethoxy-quinoline-3-carbonitrile] | – | – | 11 | – | – | – | – | – | –
9 | CCOc1cc2ncc(C#N)c(Nc3ccc4c(c3)CCC4=O)c2cc1OCC [Example 28, 6,7-Diethoxy-4-(1-oxo-indan-5-ylamino)-quinoline-3-carbonitrile] | – | 0.0181 (≈ 0.0467 µM) | 0.0803 | 0.0244 (≈ 0.063 µM) | – | – | – | – | –
10 | CCOc1cc2ncc(C#N)c(Nc3ccc4c(c3)C(=O)OC4)c2cc1OCC [Example 29, 6,7-Diethoxy-4-(3-oxo-1,3-dihydro-isobenzofuran-5-ylamino)-quinoline-3-carbonitrile] | – | – | 8.48 | – | – | – | – | – | –
11 | CCOc1cc2ncc(C#N)c(Nc3ccc4c(c3)S(=O)(=O)C=C4)c2cc1OCC [Example 30, 4-(1,1-Dioxo-1H-1-benzo[b]thiophen-6-ylamino)-6,7-diethoxy-q uinoline-3-carbonitrile] | – | – | – | – | 0.336 | 0.00328 | 0.257 | 0.146 | CELL IC50 3T3/NEU ([1]; EGFR −, Her-2 +++, 2 days, SRB): 0.251 mg/L
12 | CCOc1cc2ncc(C#N)c(Nc3ccc4cn[nH]c4c3)c2cc1OC [Example 31, 7-Ethoxy-4-(1H-indazol-6-ylamino)-6-methoxy-quinoline-3-carbonitrile] | – | – | 0.0743 | – | – | – | – | – | –
13 | CCOc1cc2c(Nc3ccc4cn[nH]c4c3)c(C#N)cnc2cc1OC [Example 32, 6-Ethoxy-4-(1H-indazol-6-ylamino)-7-methoxy-quinoline-3-carbonitrile] | – | – | 13.4 | – | – | – | – | – | –
14 | CCOc1cc2ncc(C#N)c(Nc3ccc4c(c3)C(=O)NCC(=O)N4C)c2cc1OCC [Example 33, 6,7-Diethoxy-4-(1-methyl-2,5-dioxo-2,3,4,5-tetrahydro-1H-benzo[e][1,4]diazepin-7-ylamino)-quinoline-3-carbonitrile] | – | – | > 11.2 | – | – | – | – | – | –
15 | COc1cc2c(Nc3ccc4cn[nH]c4c3)c(C#N)cnc2cc1OCCCN1CCOCC1 [Example 34, 4-(1H-Indazol-6-ylamino)-6-methoxy-7-(3-morpholin-4-yl-propoxy)-quinoline-3-carbonitrile] | > 5 | > 5 | > 10.9 | > 5 | – | – | – | – | IC50 (MDA-MB-435 cells; EGFR −, Her-2 −, 2 days, SRB): > 5 mg/L
16 | COc1cc2ncc(C#N)c(Nc3ccc(Sc4nccn4C)c(Cl)c3)c2cc1[N+](=O)[O-] [Example 35, 4-({3-chloro-4-[(1-methyl-1H-imidazol-2-yl)sulfanyl]phenyl}amino)-7-methoxy-6-nitro-3-quinolinecarbonitrile] | 0.669 (≈ 1.43 µM) | 2.88 (≈ 6.17 µM) | 8.76 | 1.55 (≈ 3.32 µM) | – | – | – | – | IC50 (MDA-MB-435 cells; EGFR −, Her-2 −, 2 days, SRB): 1 mg/L (≈ 2.14 µM)
17 | COc1cc2ncc(C#N)c(Nc3ccc(Sc4nccn4C)c(Cl)c3)c2cc1N [Example 36, 6-amino-4-({3-chloro-4-[(1-methyl-1H-imidazol-2-yl)sulfanyl]phenyl}amino)-7-methoxy-3-quinolinecarbonitrile] | 0.011 (≈ 0.0252 µM) | 3.04 (≈ 6.96 µM) | 2.43 | 3.16 (≈ 7.23 µM) | – | – | – | – | IC50 (MDA-MB-435 cells; EGFR −, Her-2 −, 2 days, SRB): 0.39 mg/L (≈ 0.893 µM)
18 | COc1cc2ncc(C#N)c(Nc3ccc(Sc4nccs4)c(Cl)c3)c2cc1[N+](=O)[O-] [Example 38, 4-{[3-chloro-4-(1,3-thiazol-2-ylsulfanyl)phenyl]amino}-7-methoxy-6-nitro-3-quinolinecarbonitrile] | 0.124 (≈ 0.264 µM) | 0.148 (≈ 0.315 µM) | 0.558 | 0.15 (≈ 0.319 µM) | – | – | – | – | IC50 (MDA-MB-435 cells; EGFR −, Her-2 −, 2 days, SRB): 0.35 mg/L (≈ 0.745 µM)
19 | COc1cc2ncc(C#N)c(Nc3ccc(Sc4nccs4)c(Cl)c3)c2cc1N [Example 39, 6-amino-4-{[3-chloro-4-(1,3-thiazol-2-ylsulfanyl)phenyl]amino}-7-methoxy-3-quinolinecarbonitrile] | 0.236 (≈ 0.536 µM) | 0.663 (≈ 1.51 µM) | 0.757 | 0.55 (≈ 1.25 µM) | – | – | – | – | IC50 (MDA-MB-435 cells; EGFR −, Her-2 −, 2 days, SRB): 0.65 mg/L (≈ 1.48 µM)
20 | COc1cc2ncc(C#N)c(Nc3ccc(-n4ccnc4)c(Cl)c3)c2cc1[N+](=O)[O-] [Example 41] | – | – | – | – | 1.48 | 0.95 | 1.79 | 1.66 | CELL IC50 3T3/NEU ([1]; EGFR −, Her-2 +++, 2 days, SRB): 1.09 mg/L
21 | COc1cc2ncc(C#N)c(Nc3ccc(-n4ccnc4)c(Cl)c3)c2cc1N [Example 42] | – | – | – | – | 1.73 | 1.27 | 1.63 | 5.99 | CELL IC50 3T3/NEU ([1]; EGFR −, Her-2 +++, 2 days, SRB): 0.53 mg/L
22 | COc1cc2ncc(C#N)c(Nc3ccc(Sc4nc5ccccc5c(=O)[nH]4)c(Cl)c3)c2cc1N [Example 45] | – | – | – | – | 2.15 | 4.58 | 1.22 | 4.66 | CELL IC50 3T3/NEU ([1]; EGFR −, Her-2 +++, 2 days, SRB): 1.88 mg/L
23 | COc1cc2ncc(C#N)c(Nc3ccc(Sc4nc5ccccc5c(=O)[nH]4)c(Cl)c3)c2cc1NC(=O)/C=C/CN(C)C [Example 46] | – | – | – | – | 0.06 | >5 | 0.34 | >5 | CELL IC50 3T3/NEU [1, 2]: 0.15 mg/L
24 | COc1cc2ncc(C#N)c(Nc3ccc(N(Cc4cccnc4)C(C)=O)c(Cl)c3)c2cc1NC(=O)/C=C/CN(C)C [Example 47] | – | – | – | – | >5 | 1.16 | 0.646 | 1.64 | CELL IC50 3T3/NEU ([1]; EGFR −, Her-2 +++, 2 days, SRB): >5 mg/L
25 | COc1cc2ncc(C#N)c(Nc3ccc(N(Cc4cccnc4)C(C)=O)c(Cl)c3)c2cc1[N+](=O)[O-] [Example 48] | – | – | – | – | 0.68 | 2.61 | 1.6 | 2.57 | CELL IC50 3T3/NEU ([1]; EGFR −, Her-2 +++, 2 days, SRB): 1.79 mg/L
26 | COc1cc2ncc(C#N)c(Nc3ccc(N(Cc4cccnc4)C(C)=O)c(Cl)c3)c2cc1N [Example 49] | – | – | – | – | 3.41 | 3.76 | >5 | >5 | CELL IC50 3T3/NEU ([1]; EGFR −, Her-2 +++, 2 days, SRB): 2.4 mg/L
27 | COc1cc2ncc(C#N)c(Nc3ccc(N(Cc4cccnc4)C(C)=O)c(Cl)c3)c2cc1NC(C)=O [Example 50] | – | – | – | – | 3.94 | >5 | 3.68 | >5 | CELL IC50 3T3/NEU ([1]; EGFR −, Her-2 +++, 2 days, SRB): >5 mg/L
28 | COc1cc2c(Nc3ccc(Sc4nccn4C)c(Cl)c3)c(C#N)cnc2cc1OCCCN1CCOCC1 [Example 51, 4-{3-chloro-4-[(1-methyl-1H-imidazol-2-yl)sulfanyl]anilino}-6-methoxy-7-[3-(4-morpholinyl)propoxy]-3-quinolinecarbonitrile] | 0.32 (≈ 0.566 µM) | 0.775 (≈ 1.37 µM) | 0.347 | 2.18 (≈ 3.86 µM) | – | – | – | – | –
29 | COc1cc2c(Nc3ccc(Sc4nccn4C)c(Cl)c3)c(C#N)cnc2cc1OCCCn1ccnn1 [Example 73, 4-{3-chloro-4-[(1-methyl-1H-imidazol-2-yl)sulfanyl]anilino}-6-methoxy-7-[3-(1H-1,2,3-triazol-1-yl)propoxy]-3-quinolinecarbonitrile] | 0.104 (≈ 0.19 µM) | 1.83 (≈ 3.35 µM) | 1.78 | 3.69 (≈ 6.75 µM) | – | – | – | – | –
